Reference: patent US9434711B2 (Janssen Pharmaceutica, NV, priority 2007, dated 2016)

What was measured:
canine TRPM8 = canine TRPM8 (Canis lupus familiaris, UniProt Q1A7N1); test: In Vitro Canine TRPM8 Functional Assay (Ca2+ fluorescence, icilin activation); type: cell-based; settings: for IC50: HEK293 cells stably expressing canine TRPM8, icilin activation, eight-point dose-response, read-out: IC50; for inhibition at 0.5 µM: compound at 0.5 μM, read-out: % Inh @ 0.5; for inhibition at 0.5 µM / inhibition at 0.2 µM: canine TRPM8, icilin activation; for inhibition at 0.2 µM: compound at 0.2 μM, read-out: % Inh @ 0.2
Sequence of canine TRPM8 (Q1A7N1 1-1104): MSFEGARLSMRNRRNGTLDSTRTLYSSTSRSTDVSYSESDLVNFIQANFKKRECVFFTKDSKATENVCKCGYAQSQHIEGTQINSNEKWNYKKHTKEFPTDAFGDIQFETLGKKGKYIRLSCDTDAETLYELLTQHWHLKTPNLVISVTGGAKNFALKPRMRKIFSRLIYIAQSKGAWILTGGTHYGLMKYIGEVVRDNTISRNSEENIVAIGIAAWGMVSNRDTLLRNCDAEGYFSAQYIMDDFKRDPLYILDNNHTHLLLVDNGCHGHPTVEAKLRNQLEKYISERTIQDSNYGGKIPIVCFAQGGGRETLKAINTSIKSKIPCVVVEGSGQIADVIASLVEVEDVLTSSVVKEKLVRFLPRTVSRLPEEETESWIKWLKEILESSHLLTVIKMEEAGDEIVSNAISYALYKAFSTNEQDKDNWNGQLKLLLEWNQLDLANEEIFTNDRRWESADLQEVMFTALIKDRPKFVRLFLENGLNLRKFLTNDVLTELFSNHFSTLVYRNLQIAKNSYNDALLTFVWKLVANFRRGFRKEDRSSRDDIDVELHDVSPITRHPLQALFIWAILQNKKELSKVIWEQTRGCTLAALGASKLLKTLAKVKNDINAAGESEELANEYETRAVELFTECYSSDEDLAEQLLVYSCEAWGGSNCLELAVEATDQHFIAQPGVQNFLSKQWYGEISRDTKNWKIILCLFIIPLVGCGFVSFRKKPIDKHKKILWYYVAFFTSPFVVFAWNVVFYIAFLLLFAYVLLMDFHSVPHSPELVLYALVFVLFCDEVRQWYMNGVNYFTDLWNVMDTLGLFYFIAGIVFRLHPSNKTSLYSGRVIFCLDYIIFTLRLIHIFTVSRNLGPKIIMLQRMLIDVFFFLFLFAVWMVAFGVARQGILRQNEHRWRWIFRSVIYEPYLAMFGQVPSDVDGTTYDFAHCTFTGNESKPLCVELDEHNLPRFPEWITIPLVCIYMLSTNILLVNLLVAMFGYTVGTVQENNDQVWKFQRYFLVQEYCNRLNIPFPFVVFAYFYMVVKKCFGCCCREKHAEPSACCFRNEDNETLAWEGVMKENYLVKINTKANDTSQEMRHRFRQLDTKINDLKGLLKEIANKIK
Summary of the method: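 HEK293 cells stably expressing canine TRPM8 loaded with Calcium 3 dye; compound added and Ca2+ fluorescence monitored 5 min before icilin at a final level giving ~80% maximal response, read on FLIPR or FDSS. EC50 or IC50 from eight-point dose-response, quadruplicate wells per point.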

Male Sprague Dawley rats [1] = test: Reversal of Icilin-Induced Behaviors in Rats; type: in vivo; settings: Rattus norvegicus, po, 1 h, 1 h post-icilin; for inhibition in vivo at 30 mg/kg: 30 mg/kg p.o.
Experimental: Male Sprague Dawley rats (225-450 g, Charles River Labs, n=4-6/treatment) were used to evaluate the ability of selected compounds of the formula (I) to reverse icilin-induced “wet-dog” shakes. Icilin was administered in PEG-400 or 10% solutol/H2O, at 1.0 or 3.0 mg/kg, i.p. and spontaneous “wet-dog” shakes (WDS) were counted 10-20 minutes post-icilin. […] Results are presented as a percent inhibition of shakes, which was calculated as [1-(test compound WDS count/vehicle WDS count)]×100.

Male Sprague Dawley rats [2] = test: Chronic Constriction Injury (CCI)-Induced Model of Neuropathic Pain, Acetone-Induced Hypersensitivity; type: in vivo, rat; settings: Rattus norvegicus; for inhibition in vivo at 3 mg/kg: 3 mg/kg p.o.; for inhibition in vivo at 10 mg/kg: 10 mg/kg p.o.
Text: Male Sprague Dawley rats (225-450 g; n=5-8/treatment) were used to evaluate the ability of selected compounds of the formula (I) to reverse CCI-induced cold hypersensitivity. Four loose ligatures of 4-0 chromic gut were surgically placed around the left sciatic nerve under inhalation anesthesia as described by Bennett et al (Bennett G J, Xie Y K. Pain 1988, 33(1): 87-107). Fourteen to 35 days following CCI surgery, subjects were placed in elevated observation chambers containing wire mesh floors and five applications of acetone (0.05 mL/application separated by approximately 5 minutes) were spritzed onto the plantar surface of the paw using a multidose syringe. An abrupt withdrawal or lifting of the paw was considered a positive response. The number of positive responses was recorded for each rat over the five trials. Following baseline withdrawal determinations, compounds of formula (I) are administered in an appropriate vehicle, such as hydroxypropyl-β-cyclodextrin (HP β CD), methylcellulose, Methocel, 10% Solutol, or H2O, or the like, by the appropriate route, i.p. or p.o. […] Results are presented as a percent inhibition of […], which was calculated for each subject as [1−(test compound withdrawals/pre-test withdrawals)]×100 and then averaged by treatment.

Male Sprague Dawley rats [3] = test: Inhibition of Icilin-Induced "Wet-Dog" Shakes in Rats; type: in vivo, rat; settings: Rattus norvegicus, po, 2 h, Water, 120 min pre-icilin, Na salt form
Experimental: Male Sprague Dawley rats (220-450 g, Charles River Labs, n=6-9/treatment) were used to evaluate the ability of selected compounds of the formula (I) to block icilin-induced “wet-dog” shakes (WDS). Compounds of the formula (I) were administered in an appropriate vehicle, such as hydroxypropyl-β-cyclodextrin (HPβCD), methocellulose, 10% Solutol, or H2O, or the like, by the appropriate route, i.p. or p.o., 30-120 minutes before icilin. Icilin was administered in PEG-400 or 10% solutol/H2O, at 1.0 or 3.0 mg/kg, i.p. and spontaneous “wet-dog” shakes were counted 10-20 minutes post-icilin. Results are presented as a percent inhibition of shakes, which was calculated as [1-(test compound WDS count/vehicle WDS count)]×100.

Sprague-Dawley rats = test: CFA-Induced Paw Radiant Heat Hypersensitivity; type: in vivo, rat; settings: dose 10 p.o., HPbCD, treatment time 100 min, Na salt form
Experimental: Intraplantar injection of complete Freund's adjuvant (CFA) in rodents results in a long-lasting inflammatory reaction, characterized by a pronounced hypersensitivity to both thermal and mechanical stimuli. This hypersensitivity peaks between 24-72 hours following injection and can last for several weeks. To assess whether test compounds of the formula (I) reverse established hypersensitivity, a 100 μL intraplantar injection of CFA (suspended in a 1:1 emulsion of saline and heat-killed Mycobacterium tuberculosis in mineral oil) can be injected into a single hind paw of Sprague-Dawley rats (typically males ranging from 150-350 g). This paradigm also may be conducted with a multiple dosing or a prophylactic dosing regime designed to alter the course of hyperalgesia development. This test predicts the analgesic, anti-allodynic and antihyperalgesic effect of numerous effective clinical agents, including acetaminophen, NSAIDS such as aspirin and ibuprofen, and opioids, such as morphine.
Each rat is placed in a test chamber on a warm glass surface and allowed to acclimate for approximately 10 minutes. A radiant thermal stimulus (beam of light) is then focused through the glass onto the plantar surface of each hind paw in turn. The thermal stimulus is automatically shut off by a photoelectric relay when the paw is moved or when the cut-off time is reached (20 seconds for radiant heat at […]). An initial (baseline) response latency to the thermal stimulus is recorded for each animal prior to the injection of CFA. Twenty-four hours following intraplantar CFA injection, the response latency of the animal to the thermal stimulus is then re-evaluated and compared to the animal's baseline response time. […] Immediately following the post-CFA latency assessment, test compound or vehicle (usually Solutol, hydroxypropyl methylcellulose, hydroxypropyl beta-cyclodextrin or PEG-400) is administered i.p. or p.o. to rats. Post-compound treatment withdrawal latencies are assessed at fixed time intervals, typically 30, 60 and 120 minutes. The percent reversal (% R) of hypersensitivity is calculated according to the following formula: % Reversal=(Treatment Response-CFA Response)/(Baseline Response-CFA Response)×100.

Male Sprague Dawley rats [4] = test: Rightward Shift of Icilin Dose Effect Curve in Rats; type: in vivo; settings: Rattus norvegicus, ip; icilin i.p., wet-dog shakes, no pretreatment; read-out: Icilin ED50, mg/kg, i.p., no pretreatment
Experimental: Male Sprague Dawley rats (200-400 g, Charles River Labs, n=6-9/treatment) were administered icilin in a suitable vehicle (e.g. PEG-400, 10% Solutol) at 0.1-30 mg/kg, i.p. Spontaneous “wet-dog” shakes were counted 10-20 minutes post-icilin in order to generate a icilin dose-effect curve. A compound of the present invention was administered orally in hydroxypropyl-β-cyclodextrin 60 minutes before icilin challenge to assess the compound's ability to inhibit spontaneous “wet-dog” shakes (WDS) produced by a range of icilin doses. The ED50 of the icilin dose-effect curve generated in the presence of TRPM8 antagonist may be compared to that generated in the presence of vehicle to determine the magnitude of rightward shift as shown below in Table 7.

[5] = po, 1 h, 30 mg/kg p.o., 10% Solutol, pretreatment 1 hr, CO2H form, read-out: Percent Inhibition
[6] = po, 1 h, 10% Solutol, pretreatment 1 hr, CO2H form, read-out: Percent Inhibition
[7] = po, 2 h, Water, pretreatment 2 hr, Na salt form, read-out: Percent Inhibition

SMILES	IC50 (canine TRPM8) [nM]	inhibition at 0.5 µM (canine TRPM8) [%]	inhibition in vivo at 30 mg/kg (Male Sprague Dawley rats [1]) [%]	further results
O=S(=O)(c1ccccc1)N(Cc1ccc(F)c(C(F)(F)F)c1)c1sc2ccccc2c1Cl [Compound 7, N-(3-Chloro-benzo[b]thiophen-2-yl)-N-(4-fluoro-3-trifluoromethyl-benzyl)-benzenesulfonamide]	7.3	97	65	inhibition in vivo at 30 mg/kg (Male Sprague Dawley rats [2]; ip, 2 h, 30 mg/kg i.p., 10% Solutol, pretreatment 2 hr, CO2H form, read-out: Percent Inhibition): 66%; inhibition in vivo at 30 mg/kg (Male Sprague Dawley rats [2]; [5]): 47%
Cc1c(N(Cc2cccc3cccnc23)S(=O)(=O)c2cccnc2)sc2ccccc12 [Compound 14, N-(3-Methyl-benzo[b]thiophen-2-yl)-N-(quinolin-8-ylmethyl)-pyridine-3-sulfonamide]	18.9	99	-16	
Cc1c(N(Cc2ccc(F)c(F)c2)S(=O)(=O)c2ccccc2)sc2ccccc12 [Compound 125, N-(3,4-Difluoro-benzyl)-N-(3-methyl-benzo[b]thiophen-2-yl)-benzenesulfonamide]	5	99	39	
O=S(=O)(c1ccccc1)N(Cc1ccc(F)c(F)c1)c1sc2ccccc2c1Br [Compound 148, N-(3-Bromo-benzo[b]thiophen-2-yl)-N-(3,4-difluoro-benzyl)-benzenesulfonamide]	2.1	98	33	
O=S(=O)(c1cccnc1)N(Cc1ccc(F)c(F)c1)c1sc2ccccc2c1Br [Compound 149, N-(3-Bromo-benzo[b]thiophen-2-yl)-N-(3,4-difluoro-benzyl)-pyridin-3-yl-sulfonamide]	7.1	101	-3	inhibition at 0.2 µM (canine TRPM8): 102%
O=S(=O)(c1ccccc1)N(Cc1ccccn1)c1sc2ccccc2c1Br [Compound 168, N-(3-Bromo-benzo[b]thiophen-2-yl)-N-(pyridin-2-ylmethyl)-benzenesulfonamide]	14.2	96	-29	
O=S(=O)(c1ccccc1)N(Cc1ccc(OC(F)(F)F)cc1)c1sc2ccccc2c1Br [Compound 174, N-(3-Bromo-benzo[b]thiophen-2-yl)-N-(4-trifluoromethoxy-benzyl)-benzenesulfonamide]	2.5	99	45	
O=S(=O)(c1ccccc1)N(Cc1ccc(F)c(C(F)(F)F)c1)c1sc2ccccc2c1Br [Compound 177, N-(3-Bromo-benzo[b]thiophen-2-yl)-N-(4-fluoro-3-trifluoromethyl-benzyl)-benzenesulfonamide]	5.7	96	66	inhibition in vivo at 3 mg/kg (Male Sprague Dawley rats [1]; 3 mg/kg p.o.): 15%; inhibition in vivo at 10 mg/kg (Male Sprague Dawley rats [1]; 10 mg/kg p.o.): 53%; inhibition in vivo at 16.6 mg/kg (Male Sprague Dawley rats [1]; 16.6 mg/kg p.o.): 54%; inhibition in vivo at 100 mg/kg (Male Sprague Dawley rats [1]; 100 mg/kg p.o.): 52%; inhibition in vivo at 30 mg/kg (Male Sprague Dawley rats [2]; ip, 3 h, 30 mg/kg i.p., 10% Solutol, pretreatment 3 hr, CO2H form, read-out: Percent Inhibition): 60%; inhibition in vivo at 3 mg/kg (Male Sprague Dawley rats [2]; [6]): 23%; inhibition in vivo at 10 mg/kg (Male Sprague Dawley rats [2]; [6]): 49%; inhibition in vivo at 30 mg/kg (Male Sprague Dawley rats [2]; [5]): 46%; inhibition in vivo at 100 mg/kg (Male Sprague Dawley rats [2]; po, 1 h, 100 mg/kg p.o., 10% Solutol, pretreatment 1 hr, CO2H form, read-out: Percent Inhibition): 70%
O=S(=O)(c1cccnc1)N(Cc1ccc(F)c(C(F)(F)F)c1)c1sc2ccccc2c1Br [Compound 188, N-(3-Bromo-benzo[b]thiophen-2-yl)-N-(4-fluoro-3-trifluoromethyl-benzyl)-pyridin-3-yl-sulfonamide]	12.2	101	7	inhibition at 0.2 µM (canine TRPM8): 99%
CC(C)(O)c1c(N(Cc2ccc(F)c(C(F)(F)F)c2)S(=O)(=O)c2ccc(C(=O)O)cc2)sc2ccccc12 [Compound 361, N-(4-Fluoro-3-trifluoromethylbenzyl)-N-(3-(1-hydroxy-1-methyl-ethyl)-benzo[b]thiophen-2-yl)-4-carboxy-benzenesulfonamide]	0.8			inhibition at 0.2 µM (canine TRPM8): 93%; ED50 (Male Sprague Dawley rats [3]): 4.5 mg/kg; Percent Reversal (Sprague-Dawley rats): 28%; inhibition in vivo at 3 mg/kg (Male Sprague Dawley rats [2]; [7]): 9%; inhibition in vivo at 10 mg/kg (Male Sprague Dawley rats [2]; [7]): 17%; inhibition in vivo at 30 mg/kg (Male Sprague Dawley rats [2]; po, 2 h, 30 mg/kg p.o., Water, pretreatment 2 hr, Na salt form, read-out: Percent Inhibition): 91%; inhibition in vivo at 30 mg/kg (Male Sprague Dawley rats [2]; po, 4 h, 30 mg/kg p.o., Water, pretreatment 4 hr, Na salt form, read-out: Percent Inhibition): 74%; ED50 (Male Sprague Dawley rats [2]; po, Water, pretreatment 2 hr, Na salt form): 13 mg/kg
O=C1NC(c2cccc([N+](=O)[O-])c2)=CCN1c1ccccc1O [Icilin, reference compound]				ED50 (Male Sprague Dawley rats [4]): 0.75 mg/kg
